{
  "source": "the kinase profiling compilation of Christmann-Franck et al. (2016)",
  "assay_in_all_cases": "radiometric filter-binding kinase assay",
  "key": {"[1]": {"target": "MKNK2 (human) (UniProt Q9HBH9)", "conditions": "compound 10.0 µM; ATP 50 µM"}, "[2]": {"target": "PRKCA (human) (UniProt P17252)", "conditions": "ATP 20 µM"}, "[3]": {"target": "MKNK1 (human) (UniProt Q9BUB5)", "conditions": "ATP 50 µM"}, "[4]": {"tested_on": "RPS6KB1 (human), P23443 [T412E]", "conditions": "ATP 100 µM"}, "[5]": {"target": "PRKCZ (human) (UniProt Q05513)", "sequence (Q05513 whole entry, looked up)": "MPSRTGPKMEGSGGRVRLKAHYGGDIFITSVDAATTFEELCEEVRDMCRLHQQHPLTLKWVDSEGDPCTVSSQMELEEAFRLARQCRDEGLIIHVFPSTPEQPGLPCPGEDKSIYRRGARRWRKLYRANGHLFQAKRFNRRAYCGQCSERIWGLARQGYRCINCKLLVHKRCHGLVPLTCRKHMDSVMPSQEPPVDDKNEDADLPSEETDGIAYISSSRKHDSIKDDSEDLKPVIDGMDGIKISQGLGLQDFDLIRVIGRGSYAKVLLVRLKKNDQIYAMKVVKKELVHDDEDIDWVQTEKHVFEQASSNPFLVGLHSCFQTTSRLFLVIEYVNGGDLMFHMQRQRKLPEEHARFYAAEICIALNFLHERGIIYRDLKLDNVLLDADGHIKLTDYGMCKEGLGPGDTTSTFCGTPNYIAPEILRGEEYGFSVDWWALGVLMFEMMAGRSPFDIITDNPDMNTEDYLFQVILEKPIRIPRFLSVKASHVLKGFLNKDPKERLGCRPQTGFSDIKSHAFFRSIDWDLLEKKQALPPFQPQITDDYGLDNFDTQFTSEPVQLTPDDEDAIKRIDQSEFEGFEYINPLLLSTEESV", "conditions": "ATP 5 µM"}, "[6]": {"target": "DYRK3 (human) (UniProt O43781)", "sequence (O43781 whole entry, looked up)": "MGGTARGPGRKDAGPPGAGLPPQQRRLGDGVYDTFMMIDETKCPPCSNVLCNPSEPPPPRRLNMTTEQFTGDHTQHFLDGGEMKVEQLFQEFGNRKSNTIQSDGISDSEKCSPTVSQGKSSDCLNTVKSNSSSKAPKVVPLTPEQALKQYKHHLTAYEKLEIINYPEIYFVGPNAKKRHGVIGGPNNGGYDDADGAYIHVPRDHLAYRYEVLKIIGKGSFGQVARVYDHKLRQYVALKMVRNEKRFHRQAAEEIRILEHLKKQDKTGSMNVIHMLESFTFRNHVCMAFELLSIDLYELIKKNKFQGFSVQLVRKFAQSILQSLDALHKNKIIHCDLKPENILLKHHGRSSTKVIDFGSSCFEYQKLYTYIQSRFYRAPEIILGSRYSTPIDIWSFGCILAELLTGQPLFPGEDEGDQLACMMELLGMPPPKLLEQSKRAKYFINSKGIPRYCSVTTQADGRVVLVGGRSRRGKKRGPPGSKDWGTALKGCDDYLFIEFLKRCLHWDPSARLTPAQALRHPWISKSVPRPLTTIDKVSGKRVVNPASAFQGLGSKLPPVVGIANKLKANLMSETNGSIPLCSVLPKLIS", "conditions": "ATP 5 µM"}, "[7]": {"target": "MAPK3 (human) (UniProt P27361)", "sequence (P27361 whole entry, looked up)": "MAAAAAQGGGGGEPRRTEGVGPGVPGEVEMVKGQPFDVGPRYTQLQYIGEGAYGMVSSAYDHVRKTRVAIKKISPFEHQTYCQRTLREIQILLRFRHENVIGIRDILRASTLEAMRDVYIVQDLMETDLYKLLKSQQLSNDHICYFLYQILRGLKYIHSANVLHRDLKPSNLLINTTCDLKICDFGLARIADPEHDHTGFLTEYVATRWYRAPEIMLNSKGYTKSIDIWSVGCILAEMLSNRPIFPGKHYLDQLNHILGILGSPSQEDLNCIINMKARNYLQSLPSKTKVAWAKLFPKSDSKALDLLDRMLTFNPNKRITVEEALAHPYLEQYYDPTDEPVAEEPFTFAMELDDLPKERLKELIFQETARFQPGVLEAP", "conditions": "ATP 5 µM"}, "[8]": {"tested_on": "AKT1 (human), P31749 [S473D]", "sequence (P31749 whole entry S473D, looked up)": "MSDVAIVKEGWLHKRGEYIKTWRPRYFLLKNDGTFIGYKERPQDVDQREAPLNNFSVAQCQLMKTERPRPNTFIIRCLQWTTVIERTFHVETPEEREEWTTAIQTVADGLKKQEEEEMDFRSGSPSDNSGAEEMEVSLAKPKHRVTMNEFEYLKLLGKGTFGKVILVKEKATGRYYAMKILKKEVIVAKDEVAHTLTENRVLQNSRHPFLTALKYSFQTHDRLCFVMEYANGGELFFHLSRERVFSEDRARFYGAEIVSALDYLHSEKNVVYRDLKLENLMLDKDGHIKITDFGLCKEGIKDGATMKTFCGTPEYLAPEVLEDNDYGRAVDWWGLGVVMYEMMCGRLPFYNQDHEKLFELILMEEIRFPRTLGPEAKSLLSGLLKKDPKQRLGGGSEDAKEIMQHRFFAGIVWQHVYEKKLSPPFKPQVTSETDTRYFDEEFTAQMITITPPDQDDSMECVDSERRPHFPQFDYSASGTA", "conditions": "ATP 5 µM"}, "[9]": {"target": "MAPK11 (human) (UniProt Q15759)", "sequence (Q15759 whole entry, looked up)": "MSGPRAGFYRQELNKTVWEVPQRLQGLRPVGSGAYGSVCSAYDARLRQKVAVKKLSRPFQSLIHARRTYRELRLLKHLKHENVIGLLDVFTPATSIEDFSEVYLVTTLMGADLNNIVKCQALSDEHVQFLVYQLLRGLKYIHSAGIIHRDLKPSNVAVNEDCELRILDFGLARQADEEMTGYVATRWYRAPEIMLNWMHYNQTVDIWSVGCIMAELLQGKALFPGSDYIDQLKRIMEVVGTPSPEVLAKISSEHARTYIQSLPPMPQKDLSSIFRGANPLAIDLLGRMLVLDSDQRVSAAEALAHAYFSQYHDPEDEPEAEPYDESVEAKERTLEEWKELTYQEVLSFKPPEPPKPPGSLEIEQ", "conditions": "ATP 20 µM"}, "[10]": {"target": "AURKB (human) (UniProt Q96GD4)", "conditions": "ATP 20 µM"}, "[11]": {"target": "EEF2K (human) (UniProt O00418)", "sequence (O00418 whole entry, looked up)": "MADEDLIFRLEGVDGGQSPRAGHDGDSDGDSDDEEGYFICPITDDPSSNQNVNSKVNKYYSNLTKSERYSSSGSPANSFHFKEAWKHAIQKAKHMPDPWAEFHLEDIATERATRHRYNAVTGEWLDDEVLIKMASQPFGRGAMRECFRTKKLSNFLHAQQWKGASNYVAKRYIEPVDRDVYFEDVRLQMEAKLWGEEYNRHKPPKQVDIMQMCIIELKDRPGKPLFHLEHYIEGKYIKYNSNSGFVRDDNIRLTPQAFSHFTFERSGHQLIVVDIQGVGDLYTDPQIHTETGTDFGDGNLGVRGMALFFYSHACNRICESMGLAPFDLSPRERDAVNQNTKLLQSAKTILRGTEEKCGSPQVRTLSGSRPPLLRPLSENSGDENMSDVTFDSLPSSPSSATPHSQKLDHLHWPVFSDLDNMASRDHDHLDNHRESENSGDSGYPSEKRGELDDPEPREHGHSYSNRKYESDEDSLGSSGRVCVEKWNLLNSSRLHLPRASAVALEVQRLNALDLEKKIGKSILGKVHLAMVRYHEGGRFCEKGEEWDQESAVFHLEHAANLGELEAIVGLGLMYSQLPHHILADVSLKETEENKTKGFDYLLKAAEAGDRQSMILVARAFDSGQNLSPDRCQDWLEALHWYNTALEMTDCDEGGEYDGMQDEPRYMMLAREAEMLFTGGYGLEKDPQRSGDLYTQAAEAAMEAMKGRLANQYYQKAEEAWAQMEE", "conditions": "ATP 5 µM"}, "[12]": {"target": "RPS6KB2 (human) (UniProt Q9UBS0)", "conditions": "ATP 100 µM"}, "[13]": {"target": "STK3 (human) (UniProt Q13188)", "sequence (Q13188 whole entry, looked up)": "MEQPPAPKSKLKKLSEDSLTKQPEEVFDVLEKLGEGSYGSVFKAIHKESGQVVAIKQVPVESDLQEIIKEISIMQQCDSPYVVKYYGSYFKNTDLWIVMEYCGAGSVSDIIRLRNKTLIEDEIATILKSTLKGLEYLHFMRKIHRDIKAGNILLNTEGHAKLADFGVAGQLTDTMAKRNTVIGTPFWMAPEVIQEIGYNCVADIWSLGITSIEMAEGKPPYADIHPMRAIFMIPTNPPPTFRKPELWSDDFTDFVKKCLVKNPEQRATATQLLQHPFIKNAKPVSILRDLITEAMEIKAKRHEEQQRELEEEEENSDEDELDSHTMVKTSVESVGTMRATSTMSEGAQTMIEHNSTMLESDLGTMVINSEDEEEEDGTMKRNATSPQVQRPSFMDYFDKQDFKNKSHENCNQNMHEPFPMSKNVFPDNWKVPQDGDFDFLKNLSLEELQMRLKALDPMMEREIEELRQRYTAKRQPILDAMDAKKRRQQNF", "conditions": "ATP 20 µM"}, "[14]": {"target": "SRPK1 (human) (UniProt Q96SB4)", "sequence (Q96SB4 whole entry, looked up)": "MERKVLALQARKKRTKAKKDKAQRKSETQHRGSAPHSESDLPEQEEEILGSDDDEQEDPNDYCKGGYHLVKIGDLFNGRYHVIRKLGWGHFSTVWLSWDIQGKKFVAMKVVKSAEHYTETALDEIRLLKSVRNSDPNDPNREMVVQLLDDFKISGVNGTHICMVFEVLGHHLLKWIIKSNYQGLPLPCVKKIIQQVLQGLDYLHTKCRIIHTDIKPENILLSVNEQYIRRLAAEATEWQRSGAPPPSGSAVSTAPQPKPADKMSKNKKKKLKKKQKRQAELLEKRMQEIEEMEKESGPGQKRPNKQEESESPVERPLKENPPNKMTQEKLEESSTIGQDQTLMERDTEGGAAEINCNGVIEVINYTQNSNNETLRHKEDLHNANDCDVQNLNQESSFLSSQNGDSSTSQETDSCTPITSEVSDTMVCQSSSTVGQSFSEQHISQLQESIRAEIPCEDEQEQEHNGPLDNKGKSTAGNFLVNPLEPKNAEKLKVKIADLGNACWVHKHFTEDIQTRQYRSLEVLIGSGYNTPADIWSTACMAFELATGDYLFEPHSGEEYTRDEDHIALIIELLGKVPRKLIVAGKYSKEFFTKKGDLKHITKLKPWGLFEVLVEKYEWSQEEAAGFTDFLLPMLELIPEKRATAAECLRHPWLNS", "conditions": "ATP 50 µM"}, "[15]": {"target": "PRKACA (human) (UniProt P17612)", "conditions": "ATP 20 µM"}},
  "data": [
    {"smiles": "CCc1cncnc1N1CCN(Cc2nc3cc(C(F)(F)F)ccc3[nH]2)CC1", "values": [
      {"measurement": "residual activity", "setting": "[1]", "result": 79, "unit": "%"},
      {"measurement": "residual activity", "setting": "[2]; compound 0.1 µM", "result": 119, "unit": "%"},
      {"measurement": "residual activity", "setting": "[2]; compound 1.0 µM", "result": 106, "unit": "%"},
      {"measurement": "residual activity", "setting": "[2]; compound 10.0 µM", "result": 62, "unit": "%"},
      {"measurement": "residual activity", "setting": "[3]; compound 0.1 µM", "result": 101, "unit": "%"},
      {"measurement": "residual activity", "setting": "[3]; compound 1.0 µM", "result": 91, "unit": "%"},
      {"measurement": "residual activity", "setting": "[3]; compound 10.0 µM", "result": 79, "unit": "%"},
      {"measurement": "residual activity", "setting": "[4]; compound 0.1 µM", "result": 58, "unit": "%"},
      {"measurement": "residual activity", "setting": "[4]; compound 1.0 µM", "result": 23, "unit": "%"},
      {"measurement": "residual activity", "setting": "[4]; compound 10.0 µM", "result": 7, "unit": "%"},
      {"measurement": "residual activity", "setting": "[5]; compound 0.1 µM", "result": 78, "unit": "%"},
      {"measurement": "residual activity", "setting": "[5]; compound 1.0 µM", "result": 75, "unit": "%"},
      {"measurement": "residual activity", "setting": "[5]; compound 10.0 µM", "result": 70, "unit": "%"},
      {"measurement": "residual activity", "setting": "[6]; compound 0.1 µM", "result": 106, "unit": "%"},
      {"measurement": "residual activity", "setting": "[6]; compound 1.0 µM", "result": 92, "unit": "%"},
      {"measurement": "residual activity", "setting": "[6]; compound 10.0 µM", "result": 83, "unit": "%"},
      {"measurement": "residual activity", "setting": "[7]; compound 0.1 µM", "result": 93, "unit": "%"},
      {"measurement": "residual activity", "setting": "[7]; compound 1.0 µM", "result": 85, "unit": "%"},
      {"measurement": "residual activity", "setting": "[7]; compound 10.0 µM", "result": 83, "unit": "%"},
      {"measurement": "residual activity", "setting": "[8]; compound 0.1 µM", "result": 87, "unit": "%"},
      {"measurement": "residual activity", "setting": "[8]; compound 1.0 µM", "result": 69, "unit": "%"},
      {"measurement": "residual activity", "setting": "[8]; compound 10.0 µM", "result": 52, "unit": "%"},
      {"measurement": "residual activity", "setting": "[9]; compound 0.1 µM", "result": 88, "unit": "%"},
      {"measurement": "residual activity", "setting": "[9]; compound 1.0 µM", "result": 89, "unit": "%"},
      {"measurement": "residual activity", "setting": "[9]; compound 10.0 µM", "result": 97, "unit": "%"},
      {"measurement": "residual activity", "setting": "[10]; compound 0.1 µM", "result": 89, "unit": "%"},
      {"measurement": "residual activity", "setting": "[10]; compound 1.0 µM", "result": 87, "unit": "%"},
      {"measurement": "residual activity", "setting": "[10]; compound 10.0 µM", "result": 49, "unit": "%"},
      {"measurement": "residual activity", "setting": "[11]; compound 0.1 µM", "result": 90, "unit": "%"},
      {"measurement": "residual activity", "setting": "[11]; compound 1.0 µM", "result": 73, "unit": "%"},
      {"measurement": "residual activity", "setting": "[11]; compound 10.0 µM", "result": 78, "unit": "%"},
      {"measurement": "IC50", "setting": "[12]", "result": 65, "unit": "µM"},
      {"measurement": "residual activity", "setting": "[13]; compound 0.1 µM", "result": 95, "unit": "%"},
      {"measurement": "residual activity", "setting": "[13]; compound 1.0 µM", "result": 85, "unit": "%"},
      {"measurement": "residual activity", "setting": "[13]; compound 10.0 µM", "result": 77, "unit": "%"},
      {"measurement": "residual activity", "setting": "[14]; compound 0.1 µM", "result": 108, "unit": "%"},
      {"measurement": "residual activity", "setting": "[14]; compound 1.0 µM", "result": 106, "unit": "%"},
      {"measurement": "residual activity", "setting": "[14]; compound 10.0 µM", "result": 101, "unit": "%"},
      {"measurement": "residual activity", "setting": "[15]; compound 0.1 µM", "result": 84, "unit": "%"},
      {"measurement": "residual activity", "setting": "[15]; compound 1.0 µM", "result": 83, "unit": "%"},
      {"measurement": "residual activity", "setting": "[15]; compound 10.0 µM", "result": 34, "unit": "%"}
    ]}
  ]
}
